Measurements: article PMC12687421, “Characterisation of an allosteric site in PLCγ enzymes and implications for development of their specific inhibitors” (Biochemical Journal, 2025)
Residue numbers refer to the chain shown, from its start. pKd: −log10 of the molar value.

Experiments:
PLCγ2^wt = test: PLC activity assay 1 (A1), PLCγ2; format: biochemical, human; conditions: assay using liposomes (A1)
Procedure: The effect of nucleotide inhibition on PLC activity was measured using either a membrane-based assay with the fluorescent substrate (XY-69) incorporated into liposomes or using a small soluble substrate, Aldol 518 myo-inositol-1-phosphate (Aldol). Both methods utilised the same PLC assay buffer [20 mM Hepes-KOH, 70 mM KCl, 3 mM EGTA, 2.97 mM CaCl2, 2 mM TCEP and fatty acid-free bovine serum albumin (FAF-BSA; 50 μg/ml) (pH 7.5)]. Both assays were performed in low volume black 384-well plates (Greiner Bio-One), were composed of a final assay volume of 20 μl and were monitored in a Clariostar plate reader (BMG Labtech). The Aldol assay consisted of 4 μl of a serial dilution of ATP/ADP in assay buffer, 8 μl of PLC protein (concentration varied between PLC variants), and 8 μl of Aldol 518 myo-inositol-1-phosphate (final concentration in assay, 50 μM). […]
The XY-69 assay contained 4 μl of a serial dilution of ATP/ADP in assay buffer, 4 μl of PLC protein (concentration varied between PLC variants), and 12 μl of XY69 liposomes (final concentration in assay 1.2 mg/ml). A CLARIOstar plate reader (BMG Labtech) was used to measure the production of the fluorescent product. […] The initial linear rate of product generation was calculated and converted to a % inhibition when compared with the rate of PLC activity in the absence of nucleotide. […]

PLCγ1^wt = target: T1, PLCγ1^wt (Homo sapiens, UniProt P19174, I813T); test: Microscale thermophoresis (MST) binding; conditions: one-site binding model
T1 construct: specific activities of PLCγ1^wt and PLCγ2^wt full-length proteins; made in house; host or cells: Escherichia coli T7 Express lysY/Iq
T1 sequence (P19174 1-1291 isoform P19174-2 I813T): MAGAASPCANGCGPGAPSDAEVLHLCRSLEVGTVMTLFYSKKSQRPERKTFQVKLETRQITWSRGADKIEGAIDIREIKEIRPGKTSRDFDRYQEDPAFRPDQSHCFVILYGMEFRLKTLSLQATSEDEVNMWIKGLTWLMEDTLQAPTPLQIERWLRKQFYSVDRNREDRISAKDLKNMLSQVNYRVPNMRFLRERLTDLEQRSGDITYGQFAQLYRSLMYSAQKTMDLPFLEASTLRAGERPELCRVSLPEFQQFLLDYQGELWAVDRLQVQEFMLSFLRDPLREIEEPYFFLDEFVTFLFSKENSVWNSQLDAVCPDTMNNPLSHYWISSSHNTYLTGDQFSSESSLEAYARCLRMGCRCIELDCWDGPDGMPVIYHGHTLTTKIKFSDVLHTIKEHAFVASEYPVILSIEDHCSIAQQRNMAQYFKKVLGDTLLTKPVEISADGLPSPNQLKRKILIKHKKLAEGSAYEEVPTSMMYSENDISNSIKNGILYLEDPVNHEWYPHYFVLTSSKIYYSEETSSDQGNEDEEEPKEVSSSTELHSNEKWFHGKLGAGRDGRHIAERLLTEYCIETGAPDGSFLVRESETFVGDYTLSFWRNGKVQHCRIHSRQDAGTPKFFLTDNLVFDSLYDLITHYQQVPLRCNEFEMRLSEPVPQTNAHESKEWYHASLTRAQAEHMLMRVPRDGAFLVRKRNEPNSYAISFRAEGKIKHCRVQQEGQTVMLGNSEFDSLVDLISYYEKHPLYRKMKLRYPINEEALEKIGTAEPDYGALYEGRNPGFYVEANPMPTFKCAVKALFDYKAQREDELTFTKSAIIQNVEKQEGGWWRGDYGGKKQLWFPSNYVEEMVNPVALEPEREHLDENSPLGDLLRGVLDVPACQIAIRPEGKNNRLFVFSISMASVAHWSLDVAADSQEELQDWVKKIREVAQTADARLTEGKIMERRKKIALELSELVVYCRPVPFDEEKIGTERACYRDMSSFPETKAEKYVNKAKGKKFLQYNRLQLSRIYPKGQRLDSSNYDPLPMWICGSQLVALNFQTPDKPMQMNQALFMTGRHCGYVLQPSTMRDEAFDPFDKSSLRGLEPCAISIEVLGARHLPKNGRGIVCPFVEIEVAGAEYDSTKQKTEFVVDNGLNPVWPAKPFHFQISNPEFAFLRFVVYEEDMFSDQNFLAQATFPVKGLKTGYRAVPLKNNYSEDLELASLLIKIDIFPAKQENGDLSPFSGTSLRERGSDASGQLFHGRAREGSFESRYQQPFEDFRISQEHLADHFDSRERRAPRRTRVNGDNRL
Procedure: (§1) Proteins were diluted to 200 nM in MST buffer [50 mM Hepes.KOH, 70 mM KCl, 5% (v/v) glycerol, 0.05% (v/v) Tween-20, 2 mM DTT (pH 7.5)] and subsequently labelled by adding an equal volume of 100 nM 2nd generation RED-Tris-NTA labelling dye and incubating for 30 minutes. […] An equal volume of labelled protein was added to each ligand concentration and the mixture taken up into a standard MST capillary. Samples were measured in a Monolith NT.115 pico instrument (Nanotemper) using the Nano-RED channel. Excitation power was set to 5% and MST power set to high. All experiments were performed at 25°C. All data were analysed using the manufacturer’s MO.Control software and repeated at least three times with representative experiments shown.

PLCγ1^K491D = target: T2, PLCγ1^K491D (Homo sapiens, UniProt P19174, I813T/K491D); test: Microscale thermophoresis (MST) binding, K491D variant; conditions: read-out: estimated Kd, MST, PLCγ1^K491D
T2 construct: made in house; host or cells: Escherichia coli T7 Express lysY/Iq
T2 sequence (P19174 1-1291 isoform P19174-2 K491D/I813T): T1 sequence (P19174 1-1291 isoform P19174-2 I813T) with K491D
Procedure: as §1

Row | IC50 of PLCγ2^wt relative to PLCγ1^wt (fold higher) (PLCγ2^wt) | pKd (PLCγ1^wt) | pKd (PLCγ1^K491D) | Compound
1 | 1.5- to 40 fold | 4.30 to 4.52 | 2.70 to 3.00 | Nc1ncnc2c1ncn2[C@@H]1O[C@H](COP(=O)(O)OP(=O)(O)O)[C@@H](O)[C@H]1O [ADP]
2 | – | 4.30 to 4.52 | ~3.15 | Nc1ncnc2c1ncn2[C@@H]1O[C@H](COP(=O)(O)OP(=O)(O)OP(=O)(O)O)[C@@H](O)[C@H]1O [ATP]
